# pIC50: −log10 of the molar value. Counter-ions that a name gives are not always drawn.
# Assays:
# A375 melanoma cells = assay: In vivo antitumor activity, A375 melanoma engrafted s.c. in SCID mice; conditions: for Growth Delay: calculated from tumor volume curve; for Tumor Weight (% Inhibition): tumor weight at day 20
# Description: (§1) In vivo studies were conducted comparing the effectiveness of 5-bromo-2,3'-O-cyclocytidine hydrochloride (5-Br-cycloC) with one or more of 2,3'-O-cyclocytidine hydrochloride (cycloC), 1 -β-D-arabinofuranosylcytosine (Ara-C), Adfiamycin (ADR) and Dacarbazine (DTIC).
# (§2) More specifically, the antitumor activity of these compounds were evaluated in two human tumor cell lines engrafted in severe combined immunodeficient (SCID) mice. The particular cell lines used in this Example were A549 (described above in Example 5) and melanoma A375 cells obtained from The American Type Culture Collection (ATCC) (hereinafter referred to as A375).
# [1] = test system: human alveolar tumour cell line A549; assay: [methyl-^3 H]thymidine uptake / cytotoxicity in human alveolar tumour cell line A549; format: cell-based; conditions: for pIC50: Homo sapiens, 96 h, A549, four days incubation, then [methyl-^3 H]thymidine four hours, read-out: IC50 (drug concentrations producing 50% cytotoxicity); for cytotoxic effect on A549 cells compared to 2,3'-O-cyclocytidine hydrochloride: at relatively low concentrations
# Excerpt: In this Example, there is described an in vitro comparison between 2,3'-O-cyclocytidine hydrochloride, 5-bromo-2,3'-O-cyclocytidine hydrochloride, and 5-iodo-2,3'-O-cyclocytidine hydrochloride. The specific in vitro test involved assessing the toxicity of the compounds in a particular cell line by conducting [methyl-^3 H]thymidine uptake experiments.
# The particular cell line used in the Example was human alveolar tumour cell line A549 (hereinafter referred to as A549) obtained from The American Type Culture Collection (ATCC) as CCL 185 (lung carcinoma, human).
# Cultures were inoculated at 1×10^5 cells/60 mm dish, incubated for four days in the presence of various concentrations (see FIGURE) of 2,3'-O-cyclocytidine hydrochloride (.largecircle.), 5-bromo-2,3'-O-cyclocytidine hydrochloride and 5-iodo-2,3'-O-cyclocytidine hydrochloride. Thereafter, the cells were incubated with a medium supplemented with [methyl-^3 H]thymidine (82 Cl/mmol; 5 μCl/ml) for four hours and lysed, and the amount of radioactivity incorporated into genomic DNA was measured. The IC50 values (drug concentrations producing 50% cytotoxicity) for each compound illustrated in the FIGURE are reported in Table 10. As will be apparent from […]
# [2] = MTD in non-tumor bearing SCID mice; conditions: mouse, in vivo, ip, i.p. daily×7
# A549 = assay: In vivo antitumor activity, A549 engrafted s.c. in SCID mice; conditions: for Growth Delay: calculated from tumor volume curve; for Tumor Weight (% Inhibition): tumor weight at day 20
# Description: as §1, §2
# [3] = Experiment 1, 1000 mg/kg i.p. daily × 7
# [4] = Experiment 1, 250 mg/kg i.p. daily × 7
# [5] = Experiment 1, 250 mg/kg i.p. every other day × 7
# [6] = Experiment 1, 200 mg/kg i.p. daily × 7
# [7] = Experiment 2, 250 mg/kg i.p. daily × 7
# [8] = Experiment 2, 300 mg/kg i.p. × 1
# [9] = Experiment 3, 250 mg/kg i.p. daily × 7
# [10] = Experiment 3, 250 mg/kg i.p. every other day × 7
# [11] = Experiment 4, 250 mg/kg i.p. every other day × 7
# [12] = Experiment 1, 60 mg/kg i.p. daily × 7
# [13] = Experiment 2, 60 mg/kg i.p. daily ×
# [14] = Experiment 2, 60 mg/kg i.p. daily × 7
# [15] = Experiment 3, 120 mg/kg i.p. every other day × 7
# [16] = Experiment 4, 120 mg/kg i.p. every other day × 7
smiles,measurement,setting,value
"N=c1ccn2c(n1)O[C@@H]1[C@@H](O)[C@H]2O[C@@H]1CO [2,3'-O-Cyclocytidine hydrochloride, 2,3'-O-cyclocytidine hydrochloride, reference compound]",Growth Delay,A375 melanoma cells; [3],2 days
same,Tumor Weight (% Inhibition),A375 melanoma cells; [3],+6%
same,Survival Rate (%),"A375 melanoma cells; in vivo, ip, 1000 mg/kg",100%
same,Weight Loss (% Decrease),"A375 melanoma cells; in vivo, ip, 1000 mg/kg",0%
same,pIC50,[1],4.30
"N=c1nc2n(cc1I)[C@@H]1O[C@H](CO)[C@H](O2)[C@H]1O [5-Iodo-2,3'-O-cyclocytidine hydrochloride]",pIC50,[1],5.00
same,"cytotoxic effect on A549 cells compared to 2,3'-O-cyclocytidine hydrochloride",[1],significantly superior cytotoxic effect
"N=c1nc2n(cc1Br)[C@@H]1O[C@H](CO)[C@H](O2)[C@H]1O [5-bromo-2,3'-O-cyclocytidine hydrochloride]",MTD,[2],250 mg/kg
same,decrease of tumor growth,"A549; 250 mg/kg daily×7, over a 20 day period",significantly decreased tumor growth
same,Growth Delay,A549; [4],10 days
same,Tumor Weight (% Inhibition),A549; [4],43%
same,Growth Delay,A549; [5],6 days
same,Tumor Weight (% Inhibition),A549; [5],12%
same,survival rate,A549; in vivo,100%
same,weight loss,A549; in vivo,no weight loss (or an actual weight in one stance)
same,Survival Rate (%),"A549; in vivo, ip, 250 mg/kg",100%
same,Growth Delay,A375 melanoma cells; [6],10 days
same,Tumor Weight (% Inhibition),A375 melanoma cells; [6],26%
same,Growth Delay,A375 melanoma cells; [7],10 days
same,Tumor Weight (% Inhibition),A375 melanoma cells; [7],43%
same,Growth Delay,A375 melanoma cells; [8],11 days
same,Tumor Weight (% Inhibition),A375 melanoma cells; [8],45%
same,Growth Delay,A375 melanoma cells; [9],9 days
same,Tumor Weight (% Inhibition),A375 melanoma cells; [9],38%
same,Growth Delay,A375 melanoma cells; [10],12 days
same,Tumor Weight (% Inhibition),A375 melanoma cells; [10],43%
same,Growth Delay,A375 melanoma cells; [11],11 days
same,Tumor Weight (% Inhibition),A375 melanoma cells; [11],48%
same,weight loss during therapy,A375 melanoma cells; in vivo,no weight loss (or in two instances an actual weight gain)
same,Survival Rate (%),"A375 melanoma cells; in vivo, ip, 200 mg/kg",100%
same,Weight Loss (% Decrease),"A375 melanoma cells; in vivo, ip, 200 mg/kg",0%
same,Survival Rate (%),"A375 melanoma cells; in vivo, ip, 300 mg/kg",33.3%
same,Weight Loss (% Decrease),"A375 melanoma cells; in vivo, ip, 300 mg/kg",0%
same,effectiveness in effecting tumor growth delay,"A375 melanoma cells; treatment of A375, Table 11","as effective in effecting tumor growth delay as 1-β-D-arabinofuranosylcytosine and dacarbazine, and much more effective than 2,3'-O-cyclocytidine hydrochloride"
same,pIC50,[1],4.40
same,"cytotoxic effect on A549 cells compared to 2,3'-O-cyclocytidine hydrochloride",[1],significantly superior cytotoxic effect
"COc1cccc2c1C(=O)c1c(O)c3c(c(O)c1C2=O)C[C@@](O)(C(=O)CO)C[C@@H]3O[C@H]1C[C@H](N)[C@H](O)[C@H](C)O1 [ADR, Adfiamycin]",survival rate,"A549; A549, Table 12",≤ 33.3%
same,Survival Rate (%),"A549; Experiment 1, 7 mg/kg i.p. × 1",16.7%
same,Growth Delay,"A549; Experiment 1, 7 mg/kg i.p. × 1",5 days
same,Tumor Weight (% Inhibition),"A549; Experiment 1, 7 mg/kg i.p. × 1",6%
same,Survival Rate (%),"A549; Experiment 2, 5 mg/kg i.p. × 1",16.7%
same,Growth Delay,"A549; Experiment 2, 5 mg/kg i.p. × 1",6 days
same,Tumor Weight (% Inhibition),"A549; Experiment 2, 5 mg/kg i.p. × 1",24%
same,weight loss,A549; in vivo,weight loss
same,Weight Loss (% Decrease),"A549; in vivo, ip, 5 mg/kg",32%
same,Weight Loss (% Decrease),"A549; in vivo, ip, 7 mg/kg",16%
"Nc1ccn([C@@H]2O[C@H](CO)[C@@H](O)[C@@H]2O)c(=O)n1 [Ara-C, 1 -β-D-arabinofuranosylcytosine]",survival rate,"A549; A549, Table 12",≤ 33.3%
same,Survival Rate (%),A549; [12],33.3%
same,Growth Delay,A549; [12],7 days
same,Tumor Weight (% Inhibition),A549; [12],38%
same,Survival Rate (%),A549; [13],33.3%
same,Growth Delay,A549; [13],11 days
same,Tumor Weight (% Inhibition),A549; [13],47%
same,weight loss,A549; in vivo,weight loss
same,Survival Rate (%),A375 melanoma cells; [12],100%
same,Growth Delay,A375 melanoma cells; [12],10 days
same,Tumor Weight (% Inhibition),A375 melanoma cells; [12],45%
same,Survival Rate (%),A375 melanoma cells; [14],100%
same,Growth Delay,A375 melanoma cells; [14],11 days
same,Tumor Weight (% Inhibition),A375 melanoma cells; [14],39%
"CN(C)/N=N/c1[nH]cnc1C(N)=O [DTIC, Dacarbazine, reference compound]",Growth Delay,A375 melanoma cells; [15],12 days
same,Tumor Weight (% Inhibition),A375 melanoma cells; [15],53%
same,Growth Delay,A375 melanoma cells; [16],13 days
same,Tumor Weight (% Inhibition),A375 melanoma cells; [16],59%

# From patent publication US5527782A, “5-halo-2,3'-O-cyclocytidines” (ACIC (Canada) Inc., priority 1990, dated 1996)
